Experimental findings from publication PMC11322164 (Scientific Reports, 2024) are described below.

The experiment relates to PAO1. The experiment is described as follows: Salt sensitivity assay. Format: cell-based, P. aeruginosa.

Polymyxin B: the minimum bactericidal concentration (MBC) (as a rule, the lowest tested concentration that kills the bacteria rather than only halting them) (CaCl2 (2.5 mM)) was found to be 2 µM; the MBC (FeCl3 (4 μM)) amounted to 1 µM; the MBC (KCl (4.5 mM)) worked out at 1 µM; the MBC (MgCl2 (1 mM)) turned out to be 1 µM; the minimum bactericidal concentration (MBC) (NH4Cl (6 μM)) is 1 µM; the minimal bactericidal concentration (MBC) (NaCl (150 mM)) was 0.5 µM. Further, the MBC (ZnCl2 (8 mM)) was 1 µM. The MIC (commonly the least concentration at which growth counts as inhibited) by setting is: (CaCl2 (2.5 mM)) 2 µM; (FeCl3 (4 μM)) 1 µM; (KCl (4.5 mM)) 1 µM; (MgCl2 (1 mM)) 1 µM; (NH4Cl (6 μM)) 1 µM; (NaCl (150 mM)) 0.5 µM. Also, the minimum inhibitory concentration (MIC) (ZnCl2 (8 mM)) was found to be 1 µM.
